Assay results from ChEMBL document CHEMBL4393729, “Sleep modulating agents” (Bioorg Med Chem Lett, 2019).

Experiments:
[1] = Half life in human at 200 mg; format: ADME
[2] = Half life in human at 5 mg administered three times in a day; format: ADME; settings: in vivo
[3] = Half life in human at 150 mg; format: ADME
[4] = Half life in human at 300 mg bid; format: ADME; settings: in vivo
[5] = Half life in human at 75 mg; format: ADME
[6] = Half life in human at 1 to 6 mg; format: ADME
[7] = Half life in human at 1 to 2 mg; format: ADME
[8] = Half life in human at 1 to 3 mg; format: ADME
[9] = Half life in human at 1 mg; format: ADME
[10] = Half life in human at 20 mg; format: ADME
[11] = Half life in human up to 3600 mg; format: ADME
[12] = Half life in human; format: ADME
[13] = Half life in human at 20 to 50 mg; format: ADME
[14] = Half life in human at 18 to 36 mg; format: ADME
[15] = Half life in human at 25 to 400 mg
[16] = Oral bioavailability in human; format: ADME, organism-based; settings: in vivo
[17] = Half life in human at 8 mg treated 30 mins before bedtime; format: ADME; settings: in vivo
[18] = Half life in human at 2250 mg administered as two doses; format: ADME; settings: in vivo
[19] = Half life in human at 75 to 300 mg; format: ADME
[20] = Half life in human at 5 to 20 mg; format: ADME
[21] = Half life in human at 5 to 10 mg; format: ADME

NC(=O)C[S@+]([O-])C(c1ccccc1)c1ccccc1 [(S)-MODAFINIL]
half-life [1]: 4 h

NC[C@H](CC(=O)O)c1ccc(Cl)cc1 [ARBACLOFEN]
half-life [2]: 2 to 4 h

NC(=O)C[S@@+]([O-])C(c1ccccc1)c1ccccc1 [ARMODAFINIL]
half-life [1]: 15 h | half-life [3]: 15 h

CC[C@H]1OC(=O)[C@H](C)[C@@H](O[C@H]2C[C@@](C)(OC)[C@@H](O)[C@H](C)O2)[C@H](C)[C@@H](O[C@@H]2O[C@H](C)C[C@H](N(C)C)[C@H]2O)[C@](C)(OC)C[C@@H](C)C(=O)[C@H](C)[C@@H](O)[C@]1(C)O [CLARITHROMYCIN]
half-life [4]: 5 to 7 h

CN(C)CC(c1ccc(O)cc1)C1(O)CCCCC1 (stereo unspecified) [DESVENLAFAXINE]
half-life [5]: 11 h

CN(C)CC/C=C1\c2ccccc2COc2ccccc21 [E-DOXEPIN]
half-life [6]: 8 to 24 h

Clc1ccc2c(c1)C(c1ccccc1)=NCc1nncn1-2 [ESTAZOLAM]
half-life [7]: 10 to 24 h

CN1CCN(C(=O)O[C@H]2c3nccnc3C(=O)N2c2ccc(Cl)cn2)CC1 [ESZOPICLONE]
half-life [8]: 6 h

CCOC(=O)c1ncn2c1CN(C)C(=O)c1cc(F)ccc1-2 [FLUMAZENIL]
half-life [9]: 0.6 to 1.2 h

CNCCC(Oc1ccc(C(F)(F)F)cc1)c1ccccc1 (stereo unspecified) [FLUOXETINE]
half-life [10]: 24 to 96 h

NCC1(CC(=O)O)CCCCC1 [GABAPENTIN]
half-life [11]: 5 to 7 h

OC1(c2ccc(Cl)cc2)c2ccccc2C2=NCCN21 (stereo unspecified) [MAZINDOL]
half-life [8]: 10 to 13 h

COC(=O)C(c1ccccc1)C1CCCCN1 (stereo unspecified) [METHYLPHENIDATE]
half-life [10]: 2 h

NCCC(Oc1ccc(C(F)(F)F)cc1)c1ccccc1 (stereo unspecified) [NORFLUOXETINE]
half-life [12]: 360 to 408 h

COc1ccc2[nH]cc(CCNC(=O)c3cc(=O)cco3)c2c1 [PIROMELATINE]
half-life [13]: 1 to 3 h

Clc1ccc(CCCOCCCN2CCCCC2)cc1 [PITOLISANT]
half-life [14]: 10 h

OCCOCCN1CCN(C2=Nc3ccccc3Sc3ccccc32)CC1 [QUETIAPINE]
half-life [15]: 6 h

CCC(=O)NCC[C@@H]1CCc2ccc3c(c21)CCO3 [RAMELTEON]
bioavailability [16]: 1.8% | half-life [17]: 1 to 2.6 h

O=C([O-])CCCO.[Na+] [SODIUM OXYBATE]
half-life [18]: 0.6 h

NC(=O)OC[C@H](N)Cc1ccccc1 [SOLRIAMFETOL]
half-life [19]: 6 to 8 h

Cc1ccc(-n2nccn2)c(C(=O)N2CCN(c3nc4cc(Cl)ccc4o3)CC[C@H]2C)c1 [SUVOREXANT]
half-life [20]: 9 to 13 h

CCC(=O)NC[C@@H]1C[C@H]1c1cccc2c1CCO2 [TASIMELTEON]
half-life [10]: 0.9 to 1.7 h

COc1ccc(C(CN(C)C)C2(O)CCCCC2)cc1 (stereo unspecified) [VENLAFAXINE]
half-life [5]: 5 h

Cc1ccc(-c2nc3ccc(C)cn3c2CC(=O)N(C)C)cc1 [ZOLPIDEM]
half-life [21]: 1.4 to 4.5 h
